Values quoted from earlier work, collected in patent publication US10221122B2, “Enantiospecific process for the preparation of (R) and (S) enantiomers of sex pheromonoes of the long tailed mealy bug” (Council of Scientific & Industrial Research, priority 2015, dated 2019).
Read-outs that look alike come from different tables or passages of the source.

What was measured:
male mealybugs [1] = conditions: attraction lasting three months; reported by Miller group
American cockroach = conditions: J. Chem. Ecol. 1983, 9(3), 433-48
male mealybugs [2] = conditions: field trials; J. Org. Chem. 2013, 78, 6281-6284
[3] = tested on: males of the American cockroach; conditions: Agric. Biol. Chem. 1979, 43(9), 1967-1974

SMILES	sex pheromonal activity (American cockroach; at 0.05 mg)	attractiveness to male mealybugs (male mealybugs [2])	further results
CC(=O)OCCC1(C)C=CCC1(C)C (racemic) [racemic form of the pheromone]	–	–	amount sufficient to attract male mealybugs (male mealybugs [1]): 25 µg
CCC(=O)OC1CC2CCC1(C)C2(C)C (stereo not shown) [Ic]	showed the activity	–	–
CC(=O)OCC[C@@]1(C)C=CCC1(C)C [(S)-(+)-enantiomer, 2-[(1S)-1,5,5-trimethylcyclopent-2-en-1-yl]ethyl acetate]	–	highly attractive	–
CCC(=O)OC1CC2CCC1(C)C2(C)C (single isomer, unassigned; (-)) [(−)-bornyl propionate]	–	–	sex pheromonal activity (American cockroach; at 0.5 mg dose): weak activity
CC(=O)OCC[C@]1(C)C=CCC1(C)C [(R)-(−)-enantiomer, 2-[(1R)-1,5,5-trimethylcyclopent-2-en-1-yl]ethyl acetate]	–	neither attractive nor inhibitory	–
CC(=O)OC1CC2CCC1(C)C2(C)C (single isomer, unassigned; (+)) [(+)-bornyl acetate]	showed the activity	–	excitation of males showing the typical sexual response [3]: excite males of the American cockroach
